Structures can show the parent of a compound that is named as a salt.

The target of the first experiment is T1, human PHD2 (Homo sapiens, UniProt Q9GZT9).
T1 construct: made in house; host or cells: Sf9 insect cells (baculovirus, pVL1393 vector)
T1 sequence (Q9GZT9 whole entry): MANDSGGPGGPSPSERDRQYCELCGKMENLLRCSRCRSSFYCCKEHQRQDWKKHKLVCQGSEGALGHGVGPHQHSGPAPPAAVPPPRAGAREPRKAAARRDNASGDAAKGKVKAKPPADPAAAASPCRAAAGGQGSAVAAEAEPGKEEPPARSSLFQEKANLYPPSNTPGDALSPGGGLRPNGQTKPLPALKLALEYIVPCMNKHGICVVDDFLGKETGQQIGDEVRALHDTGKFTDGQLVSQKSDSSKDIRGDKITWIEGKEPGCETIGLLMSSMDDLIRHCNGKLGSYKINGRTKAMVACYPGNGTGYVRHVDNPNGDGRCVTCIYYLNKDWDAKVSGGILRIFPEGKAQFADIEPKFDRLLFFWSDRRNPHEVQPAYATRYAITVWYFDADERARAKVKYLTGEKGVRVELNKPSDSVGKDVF
Briefly: Measurement of human PHD inhibitory activity (TR-FRET, hydroxylation of HIF-1α partial peptide). The format is biochemical. To be noted: human PHD2 enzyme 1 nM, 25° C. 30 min, values consisting solely of numbers; read-out: IC50 (μM) in vitro, human PHD inhibitory activity. The protocol:
Human PHD2 was expressed in insect cell (Sf9 cell). […] The vector and baculovirus were cotransfected into Sf9, and human PHD2 expression baculovirus was isolated in Sf9. By using the virus, human PHD2-expressed cell was prepared. […] The cell lysate was flowed into a column filled with ANTI-FLAG M2 Affinity Gel Freezer Safe (SIGMA), washed, and the N-terminal FLAG-tag-added human PHD2 was eluted and collected.
VBC complex (VHL/Elongin B/Elongin C) was expressed in Escherichia coli (BL21(DE3)). […] After these expression vectors were transfected into Escherichia coli (BL21(DE3)), Escherichia coli was cultured at 37° C. in the medium containing IPTG. The collected Escherichia coli was disrupted by sonication and flowed into a column filled with Ni-NTA superflow (QIAGEN), washed, and the product was eluted and collected. The eluate was flowed into a column filled with Glutathione Sepharose 4B, washed, and the product was eluted and collected. […]
As for human PHD2 enzyme activity, hydroxylation of proline residue contained in the 19 residues of the partial peptide based on the sequence of HIF-1α as a substrate was measured by TR-FRET (Time-Resolved Fluorescence Resonance Energy Transfer) method.
A test compound and a substrate solution were added to a 96-well plate. The reaction was started by addition of a human PHD2 enzyme solution (final concentration 1 nM) to the reaction system. After incubation at 25° C. for 30 min, a stop solution containing EDTA was added, and a VBC complex solution containing europium (Eu) and Xlent was added, and the amount of hydroxylated proline residue was quantified by time-resolved fluorescence spectroscopy. The time-resolved fluorescence in each well was measured, and the human PHD inhibitory activity (%) of the test compound was calculated based on the values of enzyme non-addition well and test compound non-addition well.
On the technique in general: In TR-FRET formats the signal depends on donor and acceptor labels being close together.
What is called IC50 is the concentration that gives 50% inhibition. With `O=C(O)CNC(=O)c1c(O)cc(-c2cc(C(F)(F)F)ccc2F)n2ncnc12` [Example 34, {[5-(2-fluoro-5-trifluoromethyl-phenyl)-7-hydroxy[1,2,4]triazolo[1,5-a]pyridine-8-carbonyl]amino}acetic acid hydrochloride], the IC50 was found to be 0.43 µM.

Regarding `O=C(O)CNC(=O)c1c(O)cc(-c2cccc(C(F)(F)F)c2F)n2ncnc12` [Example 55, {[5-(2-fluoro-3-trifluoromethyl-phenyl)-7-hydroxy[1,2,4]triazolo[1,5-a]pyridine-8-carbonyl]amino} acetic acid hydrochloride], the half-maximal inhibitory concentration (IC50) worked out at 0.23 µM.

For the compound `O=C(O)CNC(=O)c1c(O)c(CCc2ccccc2)cn2ncnc12` [Example 5, [(7-hydroxy-6-phenethyl[1,2,4]triazolo[1,5-a]pyridine-8-carbonyl)amino]acetic acid hydrochloride], the IC50 came to 1.17 µM.

On to `O=C(O)CNC(=O)c1c(O)cc(CCc2ccc(C(F)(F)F)cc2)n2ncnc12` [Example 16, ({7-hydroxy-5-[2-(4-trifluoromethyl-phenyl)ethyl][1,2,4-]triazolo[1,5-a]pyridine-8-carbonyl}amino)acetic acid hydrochloride], for which the concentration for half-maximal inhibition (IC50) was 0.32 µM.

`O=C(O)CNC(=O)c1c(O)cc(-c2ccc(F)c(C(F)(F)F)c2)n2ncnc12` [Example 121, {[5-(4-fluoro-3-trifluoromethyl phenyl)-7-hydroxy[1,2,4]triazolo[1,5-a]pyridine-8-carbonyl]amino} acetic acid]: the half-maximal inhibitory concentration (IC50) was determined as 0.33 µM.

On to `O=C(O)CNC(=O)c1c(O)cc(-c2cc(F)cc(C3CC3)c2)n2ncnc12` [Example 122, {[5-(3-cyclopropyl-5-fluorophenyl)-7-hydroxy[1,2,4]triazolo[1,5-a]pyridine-8-carbonyl]amino} acetic acid], for which the IC50 was found to be 0.96 µM.

As for `O=C(O)CNC(=O)c1c(O)cc(-c2cc(F)cc(C(F)(F)F)c2)n2ncnc12` [Example 118, {[5-(3-fluoro-5-trifluoromethyl phenyl)-7-hydroxy[1,2,4]triazolo[1,5-a]pyridine-8-carbonyl]amino} acetic acid], the IC50 stood at 0.64 µM.

Another experiment deals with human EPO production, Hep3B cells. Briefly: Human EPO production activity in Hep3B cells (EPO-ELISA of culture supernatant). To be noted: 24 hr incubation, values consisting solely of numbers, read-out: EC50 (μM) in vitro, human EPO production activity. The format is cell-based. The protocol:
The activity of the test compound on human EPO production was measured using Hep3B (AMC) established from human liver-derived cell line.
Hep3B cells were cultured in Eagle-MEM medium containing 10% fetal bovine serum, and the test compound was diluted with dimethyl sulfoxide (DMSO).
Hep3B cells were cultured in a 96-well plate, and a test compound was added at each concentration 24 hr later. After incubation at 37° C. for 24 hr, the culture supernatant was collected. The concentration of human EPO produced in the culture supernatant was measured using a human EPO-ELISA kit (manufactured by StemCell Technologies, 01630) according to the manufacturer's explanation, and the human EPO production activity (%) of the test compound was calculated based on the maximum value of production under the above conditions and the value without addition of the test compound. […] In these Tables, the values consisting solely of numbers show EC50 (μM) and those containing % show human EPO production activity (%) at […].
For orientation: EC50 means the concentration that produces a half-maximal response. With `CCCCc1cc(O)c(C(=O)NCC(=O)O)c2ncnn12` [Example 117, [(5-butyl-7-hydroxy[1,2,4]triazolo[1,5-a]pyridine-8-carbonyl)amino] acetic acid], the EC50 is 7.7 µM.

Still in this experiment, the particulars now being: 24 hr, at 30 μM, values containing %, relative to maximum production.
For `O=C(O)CNC(=O)c1c(O)ccn2ncnc12` [Example 12, [(7-hydroxy[1,2,4]triazolo[1,5-a]pyridine-8-carbonyl)amino]acetic acid hydrochloride], the “production activity (%) at 30 μM in vitro, human EPO” value (“production activity (%) at 30 μM” for short) was determined as 5%.

In the case of `CCCc1cc(O)c(C(=O)NCC(=O)O)c2ncnn12` [Example 65, [(7-hydroxy-5-propyl[1,2,4]triazolo[1,5-a]pyridine-8-carbonyl)amino] acetic acid hydrochloride], the “production activity (%) at 30 μM” value is on record as 49%.

As to `Cl.O=C(O)CNC(=O)c1c(O)ccc2ncnn12` [Example 107, [(6-hydroxy[1,2,4]triazolo[1,5-a]pyridine-5-carbonyl]amino} acetic acid hydrochloride], the “production activity (%) at 30 μM” value turned out to be 4%.

For `O=C(O)CNC(=O)c1c(O)ccn2cnnc12` [Example 10, [(7-hydroxy[1,2,4]triazolo[4,3-a]pyridine-8-carbonyl)amino]acetic acid hydrochloride], the “production activity (%) at 30 μM” value worked out at 0%.

In the case of `CCc1c(O)c(C(=O)NCC(=O)O)c2ncnn2c1CC.Cl` [Example 4, [(5,6-diethyl-7-hydroxy[1,2,4]triazolo[1,5-a]pyridine-8-carbonyl)amino]acetic acid hydrochloride], the “production activity (%) at 30 μM” value worked out at 38%.

The experiment is the same for the next values; noted with them: Homo sapiens, 24 hr incubation, values consisting solely of numbers, read-out: EC50 (μM) in vitro, human EPO production activity.
`O=C(O)CNC(=O)c1c(O)cc(-c2cc(C(F)(F)F)ccc2F)n2ncnc12` [Example 34, {[5-(2-fluoro-5-trifluoromethyl-phenyl)-7-hydroxy[1,2,4]triazolo[1,5-a]pyridine-8-carbonyl]amino}acetic acid hydrochloride]: the half-maximal effective concentration (EC50) came to 15 µM.

Regarding `O=C(O)CNC(=O)c1c(O)cc(-c2cccc(C(F)(F)F)c2F)n2ncnc12` [Example 55, {[5-(2-fluoro-3-trifluoromethyl-phenyl)-7-hydroxy[1,2,4]triazolo[1,5-a]pyridine-8-carbonyl]amino} acetic acid hydrochloride], the half-maximal effective concentration (EC50) was found to be 8.9 µM.

Consider `O=C(O)CNC(=O)c1c(O)c(CCc2ccccc2)cn2ncnc12` [Example 5, [(7-hydroxy-6-phenethyl[1,2,4]triazolo[1,5-a]pyridine-8-carbonyl)amino]acetic acid hydrochloride], for which the EC50 turned out to be 11.5 µM.

`O=C(O)CNC(=O)c1c(O)cc(CCc2ccc(C(F)(F)F)cc2)n2ncnc12` [Example 16, ({7-hydroxy-5-[2-(4-trifluoromethyl-phenyl)ethyl][1,2,4-]triazolo[1,5-a]pyridine-8-carbonyl}amino)acetic acid hydrochloride]: the EC50 was found to be 7 µM.

The experiment is the same for the next values; noted with them: Homo sapiens, Hep3B, 24 h, 24 hr incubation, values consisting solely of numbers, read-out: EC50 (μM) in vitro, human EPO production activity.
On to `O=C(O)CNC(=O)c1c(O)cc(-c2cccc(Cl)c2)c2ncnn12` [Example 84, {[8-(3-chlorophenyl)-6-hydroxy[1,2,4]triazolo[1,5-a]pyridine-5-carbonyl]amino} acetic acid], for which the concentration for a half-maximal effect (EC50) came out at 11 µM.

For the compound `CCCCCc1cn2ncnc2c(C(=O)NCC(=O)O)c1O` [Example 71, [(7-hydroxy-6-pentyl[1,2,4]triazolo[1,5-a]pyridine-8-carbonyl)amino] acetic acid hydrochloride], the EC50 was determined as 15.8 µM.

Consider `O=C(O)CNC(=O)c1c(O)cc(CCc2ccc(F)cc2)n2ncnc12` [Example 17, ({5-[2-(4-fluorophenyl)ethyl]-7-hydroxy[1,2,4]triazolo[1,5-a]pyridine-8-carbonyl}amino)acetic acid hydrochloride], for which the EC50 amounted to 8.8 µM.

`O=C(O)CNC(=O)c1c(O)cc(C2CCCCC2)c2ncnn12` [Example 92, [(8-cyclohexyl-6-hydroxy[1,2,4]triazolo[1,5-a]pyridine-8-carbonyl]amino] acetic acid hydrochloride]: the EC50 was determined as 18.5 µM.

On to `Cc1nc2c(C(=O)NCC(=O)O)c(O)cc(CCc3ccccc3)n2n1` [Example 7, [(7-hydroxy-2-methyl-5-phenethyl[1,2,4]triazolo[1,5-a]pyridine-8-carbonyl)amino]acetic acid hydrochloride], for which the concentration for a half-maximal effect (EC50) was determined as 18.4 µM.

As to `CCCCCc1cc(O)c(C(=O)NCC(=O)O)c2ncnn12` [Example 74, [(7-hydroxy-5-pentyl[1,2,4]triazolo[1,5-a]pyridine-8-carbonyl)amino] acetic acid hydrochloride], the EC50 turned out to be 8.3 µM.

For `CCCCc1cc(O)c(C(=O)NCC(=O)O)c2ncnn12` [Example 3, [(5-butyl-7-hydroxy[1,2,4]triazolo[1,5-a]pyridine-8-carbonyl)amino]acetic acid hydrochloride], the EC50 turned out to be 12.4 µM.

In the case of `O=C(O)CNC(=O)c1c(O)cc(-c2cccc(Cl)c2)n2ncnc12` [Example 44, {[5-(3-chlorophenyl)-7-hydroxy[1,2,4]triazolo[1,5-a]pyridine-8-carbonyl]amino}acetic acid], the 50% effective concentration (EC50) is 10.4 µM.

Take `O=C(O)CNC(=O)c1c(O)cc(-c2ccccc2)n2ncnc12` [Example 22, [(7-hydroxy-5-phenyl[1,2,4]triazolo[1,5-a]pyridine-8-carbonyl)amino]acetic acid hydrochloride]: the 50% effective concentration (EC50) is 13.7 µM.

As to `O=C(O)CNC(=O)c1c(O)cc(CCc2ccccc2)c2ncnn12` [Example 87, [(6-hydroxy-8 phenethyl[1,2,4]triazolo[1,5-a]pyridine-5-carbonyl)amino] acetic acid hydrochloride], the concentration for a half-maximal effect (EC50) was determined as 18.5 µM.

For `O=C(O)CNC(=O)c1c(O)cc(C2CCCCC2)n2ncnc12` [Example 27, [(5-cyclohexyl-7-hydroxy[1,2,4]triazolo[1,5-a]pyridine-8-carbonyl)amino]acetic acid hydrochloride], the EC50 came out at 7.7 µM.

On to `O=C(O)CNC(=O)c1c(O)cc(-c2ccccc2)c2ncnn12` [Example 83, [(6-hydroxy-8-phenyl[1,2,4]triazolo[1,5-a]pyridine-5-carbonyl)amino] acetic acid hydrochloride], for which the EC50 came to 20.7 µM.

Values taken from US8283465B2, “Triazolopyridine compound, and action thereof as prolyl hydroxylase inhibitor or erythropoietin production-inducing agent” (Japan Tobacco Inc., priority 2009, dated 2012).
